Results published in patent publication US4740233A, “Substituted 1,2,4-triazolo[1,5-a]-pyrimidine-2-sulfonamides and compositions and methods of controlling undesired vegetation and suppressing the nitrification of ammonium nitrogen in soil” (The Dow Chemical Company, priority 1986, dated 1988).

Test system: nitrification of ammonium nitrogen
Experiment: Suppression of nitrification of ammonium nitrogen in soil
Conditions: 27° C.
Experimental: A sufficient volume of water was added to 20 g of the soil in a wide-mouth, screw-cap, 4-ounce, glass bottle, such that the moisture content of the mixture was made equal to the 1/3 bar tension value for that soil. The mixture was thoroughly mixed before sealing. […] Acetone slows the rate of soil nitrification and its concentration must be carefully controlled. Single samples of each test chemical were incubated for two weeks at 27° C.
The experiment comprised the following types of samples:
The soil samples were analyzed as follows: Sufficient ammonium sulfate extracting solution was added to the sample, such that the total volume of added water was 50 ml (included water added during sample preparation). The capped mixture was shaken 10 minutes to solubilize nitrate and the soil particulates were allowed to settle. The nitrate concentration in the water phase was determined with a nitrate-specific ion electrode such as Orion Model 93-07.
The non-nitrate nitrogen remaining (% NH4 -N remaining) in the soil after two weeks (performance value) was calculated as follows: [formula]

Compound | % NH4-N Remaining After 2 Weeks Incubation (0.01 ppm) [%] | % NH4-N Remaining After 2 Weeks Incubation (0.1 ppm) [%] | % NH4-N Remaining After 2 Weeks Incubation (1 ppm) [%] | % NH4-N Remaining After 2 Weeks Incubation (10 ppm) [%] | % NH4-N Remaining After 2 Weeks Incubation (0.06 ppm) [%] | % NH4-N Remaining After 2 Weeks Incubation (0.25 ppm) [%] | % NH4-N Remaining After 2 Weeks Incubation (4 ppm) [%] | % NH4-N Remaining After 2 Weeks Incubation (0.6 ppm) [%] | % NH4-N Remaining After 2 Weeks Incubation (1.25 ppm) [%] | % NH4-N Remaining After 2 Weeks Incubation (2.5 ppm) [%] | % NH4-N Remaining After 2 Weeks Incubation (5 ppm) [%]
Cc1cc(C)n2nc(S(=O)(=O)Nc3cc(C(F)(F)F)ccc3S(=O)(=O)N(C)C)nc2n1 [Compound 28] | 0 | 5 | 42 | 66 | – | – | – | – | – | – | –
CCOc1cnc2nc(S(=O)(=O)Nc3c(C)cccc3Cl)nn2c1 [Compound 202] | – | – | 0 | – | 0 | 0 | 32 | – | – | – | –
O=S(=O)(Nc1ccccc1)c1nc2ncc(Cl)cn2n1 [Compound 120] | – | – | 63 | – | 71 | 46 | 87 | – | – | – | –
Cc1cc(C)n2nc(S(=O)(=O)Nc3c(C)cccc3C(N)=O)nc2n1 [Compound 61] | – | – | – | 100 | – | – | – | 20 | 34 | 65 | 89
Cc1cc(C)n2nc(S(=O)(=O)Nc3nc4c(Cl)cccc4s3)nc2n1 [Compound 258] | 0 | 0 | 23 | 78 | – | – | – | – | – | – | –
Cc1cc(C)n2nc(S(=O)(=O)Nc3c(C)cccc3C(=O)O)nc2n1 [Compound 103] | – | – | 43 | – | 0 | 15 | 53 | – | – | – | –
CCCSc1ccccc1NS(=O)(=O)c1nc2nc(C)cc(C)n2n1 [Compound 67] | – | – | 41 | – | 0 | 0 | 69 | – | – | – | –
CSc1ccccc1NS(=O)(=O)c1nc2nc(C)ccn2n1 [Compound 142] | 0 | 5 | 62 | 98 | – | – | – | – | – | – | –
Cc1nc2nc(S(=O)(=O)Nc3ccccc3C(=O)OC(C)C)nn2c2c1CCC2 [Compound 110] | 0 | 0 | 13 | 59 | – | – | – | – | – | – | –
O=S(=O)(Nc1c(F)cccc1Cl)c1nc2ncc(Cl)cn2n1 [Compound 116] | – | – | 57 | – | 27 | 50 | 81 | – | – | – | –
Cc1cc(C)n2nc(S(=O)(=O)Nc3ccccc3O)nc2n1 [Compound 3] | 0 | 0 | 0 | 25 | – | – | – | – | – | – | –
Cc1cc(C)n2nc(S(=O)(=O)Nc3ccncc3)nc2n1 [Compound 253] | 0 | 5 | 0 | 17 | – | – | – | – | – | – | –
Cc1cc(C)n2nc(S(=O)(=O)Nc3ccc(Cl)cc3Br)nc2n1 [Compound 40] | – | – | – | 66 | – | – | – | 0 | 0 | 40 | 17
Cc1cc(C)n2nc(S(=O)(=O)Nc3ccc(Cl)cc3C(=O)N(C)C)nc2n1 [Compound 43] | 0 | 0 | 44 | 91 | – | – | – | – | – | – | –
Cc1cc(C)n2nc(S(=O)(=O)Nc3ncccc3Cl)nc2n1 [Compound 252] | 0 | 0 | 38 | 82 | – | – | – | – | – | – | –
Cc1ccn2nc(S(=O)(=O)Nc3c(C)cccc3Br)nc2n1 [Compound 148] | – | – | – | 93 | – | – | – | 69 | 75 | 81 | 89
Cc1cc(C)n2nc(S(=O)(=O)Nc3ccc(F)cc3F)nc2n1 [Compound 29] | 0 | 0 | 1 | 51 | – | – | – | – | – | – | –
Cc1cc(C)n2nc(S(=O)(=O)Nc3ccccc3S(=O)(=O)c3ccccc3)nc2n1 [Compound 96] | – | – | – | 100 | – | – | – | 0 | 0 | 7 | 42
Cc1cc(Cl)c(NS(=O)(=O)c2nc3nc(C)cc(C)n3n2)c(Cl)c1 [Compound 47] | 0 | 40 | 73 | 92 | – | – | – | – | – | – | –
COC(=O)c1cc2ccccc2cc1NS(=O)(=O)c1nc2nc(C)cc(C)n2n1 [Compound 245] | – | – | 0 | – | 0 | 0 | 30 | – | – | – | –
COC(=O)c1ccc(C(=O)OC)c(NS(=O)(=O)c2nc3nc(C)cc(C)n3n2)c1 [Compound 102] | – | – | – | 44 | – | – | – | 0 | 0 | 0 | 24
Cc1cc(C)n2nc(S(=O)(=O)Nc3ccccc3C(=O)O)nc2n1 [Compound 11] | 0 | 0 | 0 | 5 | – | – | – | – | – | – | –
Cc1cc(C)n2nc(S(=O)(=O)Nc3c(C)cccc3C(=O)N(C)C)nc2n1 [Compound 62] | – | – | – | 75 | – | – | – | 0 | 13 | – | 55
Cc1cc(C)n2nc(S(=O)(=O)Nc3nccs3)nc2n1 [Compound 256] | 20 | 13 | 10 | 48 | – | – | – | – | – | – | –
Cc1cc(C)n2nc(S(=O)(=O)Nc3c(Cl)ccc(C)c3Cl)nc2n1 [Compound 46] | 50 | 71 | 88 | 94 | – | – | – | – | – | – | –
Cc1ccn2nc(S(=O)(=O)Nc3c(Cl)ccc(C)c3Cl)nc2n1 [Compound 147] | – | – | 72 | – | 41 | 55 | 87 | – | – | – | –
Cc1cc(C)n2nc(S(=O)(=O)Nc3ccc(Cl)cc3)nc2n1 [Compound 18] | 0 | 0 | 5 | 50 | – | – | – | – | – | – | –
